Consider ten compounds from patent publication US10112941B2, “Tricyclic compounds as anticancer agents” (BRISTOL-MYERS SQUIBB COMPANY, priority 2013, dated 2018).

In this test the target is BRD4 (Homo sapiens, UniProt O60885). Kind of test: Time Resolved Fluorescence Resonance Energy Transfer (TR-FRET) binding assay, BRD4. To be noted: one of the FRET assays described; read-out: FRET BRD4 IC50.
Regarding `Cc1nnn(C)c1-c1cnc2c3ccc(C(C)(C)O)cc3n(C(c3cccc(F)c3F)C3CCOCC3)c2c1` (single isomer, unassigned) [Example 95, 2-{5-[(2,3-Difluorophenyl)(oxan-4-yl)methyl]-3-(dimethyl-1H-1,2,3-triazol-5-yl)-5H-pyrido[3,2-b]indol-7-yl}propan-2-ol], the IC50 was less than 5 nM. As for `Cc1nnn(C)c1-c1cnc2c3ccc(C(C)(C)O)cc3n(C(c3ccc(F)c(F)c3)C3CCOCC3)c2c1` (single isomer, unassigned) [Example 96, 2-{5-[(3,4-Difluorophenyl)(oxan-4-yl)methyl]-3-(dimethyl-1H-1,2,3-triazol-5-yl)-5H-pyrido[3,2-b]indol-7-yl}propan-2-ol], the figure is less than 25 nM; as for `Cc1nnn(C)c1-c1cnc2c3ccc(C(C)(C)O)cc3n(C(c3ccc(F)c(F)c3)C3CCOCC3)c2c1` (single isomer, unassigned) [Example 97, 2-{5-[(3,4-Difluorophenyl)(oxan-4-yl)methyl]-3-(dimethyl-1H-1,2,3-triazol-5-yl)-5H-pyrido[3,2-b]indol-7-yl}propan-2-ol], less than 5 nM; as for `Cc1nnn(C)c1-c1cnc2c3ccc(C(C)(C)O)cc3n(C(c3cc(F)cc(F)c3)C3CCOCC3)c2c1` (single isomer, unassigned) [Example 98, 2-{5-[(3,5-Difluorophenyl)(oxan-4-yl)methyl]-3-(dimethyl-1H-1,2,3-triazol-5-yl)-5H-pyrido[3,2-b]indol-7-yl}propan-2-ol], less than 5 nM.

For `Cc1nnn(C)c1-c1cnc2c3ccc(C(C)(C)O)cc3n(C(c3cc(F)cc(F)c3)C3CCOCC3)c2c1` (single isomer, unassigned) [Example 99, 2-{5-[(3,5-Difluorophenyl)(oxan-4-yl)methyl]-3-(dimethyl-1H-1,2,3-triazol-5-yl)-5H-pyrido[3,2-b]indol-7-yl}propan-2-ol], the IC50 was less than 5 nM. To `Cc1nnn(C)c1-c1cnc2c3ccc(C(C)(C)O)cc3n(C(c3cccc(F)c3)C3CCOCC3)c2c1` (single isomer, unassigned) [Example 100, 2-[3-(Dimethyl-1H-1,2,3-triazol-5-yl)-5-[(3-fluorophenyl)(oxan-4-yl)methyl]-5H-pyrido[3,2-b]indol-7-yl]propan-2-ol] belongs less than 5 nM; to `Cc1nnn(C)c1-c1cnc2c3ccc(C(C)(C)O)cc3n(C(c3cccc(F)c3)C3CCOCC3)c2c1` (single isomer, unassigned) [Example 101, 2-[3-(Dimethyl-1H-1,2,3-triazol-5-yl)-5-[(3-fluorophenyl)(oxan-4-yl)methyl]-5H-pyrido[3,2-b]indol-7-yl]propan-2-ol], less than 25 nM; to `Cc1nnn(C)c1-c1cnc2c3ccc(C(C)(C)O)cc3n(C(c3c(F)cc(F)cc3F)C3CCOCC3)c2c1` (single isomer, unassigned) [Example 102, 2-[3-(Dimethyl-1H-1,2,3-triazol-5-yl)-5-[oxan-4-yl(2,4,6-trifluorophenyl)methyl]-5H-pyrido[3,2-b]indol-7-yl]propan-2-ol], less than 5 nM. With `Cc1nnn(C)c1-c1cnc2c3ccc(C(C)(C)O)cc3n(C(c3c(F)cc(F)cc3F)C3CCOCC3)c2c1` (single isomer, unassigned) [Example 103, 2-[3-(Dimethyl-1H-1,2,3-triazol-5-yl)-5-[oxan-4-yl(2,4,6-trifluorophenyl)methyl]-5H-pyrido[3,2-b]indol-7-yl]propan-2-ol], the IC50 is less than 5 nM. To `Cc1nnn(C)c1-c1cnc2c3c(F)cc(C(C)(C)O)cc3n(C(c3c(F)cc(F)cc3F)C3CCOCC3)c2c1` (single isomer, unassigned) [Example 104, 2-[3-(Dimethyl-1H-1,2,3-triazol-5-yl)-9-fluoro-5-[oxan-4-yl(2,4,6-trifluorophenyl)methyl]-5H-pyrido[3,2-b]indol-7-yl]propan-2-ol] belongs less than 5 nM.
